Measured values published in patent publication US20220009920A1 (GB005, Inc., priority 2020, published 2022).
Where two headings read alike, the source gives them in different places.

Tests used:
BTK = biological target: T1, BTK (Homo sapiens, UniProt Q06187); assay: Assay to determine activity against BTK; assay type: biochemical; details: 1 mM ATP, 2 nM BTK, 90 minutes at room temperature
T1 construct: purchased Cama
Procedure, shortened: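 Recombinant BTK (2 nM) was assayed with 1.5 µM FL-peptide and 1 mM ATP in pH 7.5 HEPES buffer with MgCl2, DTT, BSA and EGTA, for 90 min at room temperature before an EDTA stop. Peptide conversion ratio was read by mobility-shift, and IC50 came from 11-point 3-fold dilution curves.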

[1] = Plasma and total brain concentrations at 1 h post single oral administration to male Wistar Han rats; assay type: in vivo; details: rat, 10 mg/kg oral gavage; for Kp at 1 h: brain/plasma, read-out: brain to plasma ratio
Protocol: The appropriate amount of test article was dissolved 10% dimethylacetamide (DMA)/90% (20% hydroxypropyl-β-cyclodextrin (HP-B-CD) w/v in water to obtain a final concentration of 1 mg/mL for oral dosing. Sonication, vortex, and homogenization was used as needed. Three male Wistar Han rats aged 6-8 weeks (200-300 grams) were dosed by oral gavage 10 mg/kg solution of the test article.
At 1 h, blood and whole brains were collected. Blood was collected via cardiac puncture into tubes containing potassium EDTA and kept on ice until plasma collection. Plasma was obtained via centrifugation at 4000×g for five minutes at 4° C. Following exsanguination, animals were transcardially perfused with approximately 20 mL of saline, and brains were collected and immediately frozen. Plasma and brains were at −75±15° C. until analysis.
The desired serial concentrations of working solutions were achieved by diluting stock solution of analyte with 50% acetonitrile in water solution. 5 μL of working solutions (2, 5, 10, 50, 100, 500, 1000, 5000, 10000 ng/mL) were added to 50 μL of the male blank Wistar Han rats plasma, brain homogenate to achieve calibration standards of 0.2˜1000 ng/mL (0.2, 0.5, 1, 5, 10, 50, 100, 500, 1000 ng/mL) in a total volume of 55 μL. Four quality control samples at 0.5 ng/mL, 1 ng/mL, 50 ng/mL and 800 ng/mL for plasma, brain homogenate were prepared independently of those used for the calibration curves. These QC samples were prepared on the day of analysis in the same way as calibration standards.
55 μL of standards, 55 μL of QC samples and 55 μL of unknown samples (50 μL of plasma, brain homogenate with 5 μL of blank solution) were added to 200 μL of acetonitrile containing IS mixture for precipitating protein respectively. Then the samples were vortexed for 30 s. After centrifugation at 4° C., 4700 rpm for 15 min, the supernatant was diluted 3 times with water. 10 μL of diluted supernatant was injected into the LC/MS/MS system for quantitative analysis.

MAP3K12 = biological target: T2, MAP3K12 (Homo sapiens, UniProt Q12852); assay: Large panel kinase profiling; assay type: biochemical; details: 1 μM test article, 1 mM ATP
T2 sequence (Q12852 1-859): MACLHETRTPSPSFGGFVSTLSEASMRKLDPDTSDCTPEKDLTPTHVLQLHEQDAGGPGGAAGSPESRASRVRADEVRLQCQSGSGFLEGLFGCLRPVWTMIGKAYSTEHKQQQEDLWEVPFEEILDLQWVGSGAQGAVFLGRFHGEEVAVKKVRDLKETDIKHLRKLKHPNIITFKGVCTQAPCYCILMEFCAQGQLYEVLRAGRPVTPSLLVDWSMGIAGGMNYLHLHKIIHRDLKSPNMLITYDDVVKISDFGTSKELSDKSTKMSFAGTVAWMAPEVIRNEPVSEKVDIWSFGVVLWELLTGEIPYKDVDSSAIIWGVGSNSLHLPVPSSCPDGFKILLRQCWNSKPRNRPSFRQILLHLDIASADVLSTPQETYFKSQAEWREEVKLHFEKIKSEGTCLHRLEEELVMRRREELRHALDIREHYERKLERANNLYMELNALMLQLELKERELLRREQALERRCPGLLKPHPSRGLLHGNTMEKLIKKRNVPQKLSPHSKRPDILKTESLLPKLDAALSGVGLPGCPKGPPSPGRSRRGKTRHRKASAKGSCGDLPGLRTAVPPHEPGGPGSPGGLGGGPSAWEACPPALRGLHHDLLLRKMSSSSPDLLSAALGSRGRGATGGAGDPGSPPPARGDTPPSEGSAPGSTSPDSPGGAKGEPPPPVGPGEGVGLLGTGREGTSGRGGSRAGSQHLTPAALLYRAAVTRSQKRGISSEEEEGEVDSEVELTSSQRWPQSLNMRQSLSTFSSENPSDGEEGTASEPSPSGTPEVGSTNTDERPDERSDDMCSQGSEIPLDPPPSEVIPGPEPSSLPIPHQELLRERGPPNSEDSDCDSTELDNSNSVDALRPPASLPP
Protocol: (§1) Large panel kinase profiling was performed at AssayQuant Technologies, Inc. 260 Cedar Hill Street, Marlborough, Mass. 01752 using the PhosphoSens® CSox-Sensor platform using 1 μM test article concentration and 1 mM ATP concentration (www.assayquant.com). Reactions were run in Corning, half-area 96-well, white flat round bottom polystyrene NBS microplates (Cat. #3642) after sealing using optically-clear adhesive film (TopSealA-Plus plate seal, PerkinElmer), applied with either a roller or a paddle to eliminate evaporation and resulting drift. The standard total reaction volume was 50 μL. All experiments were ran at 30° C. to control for fluctuations in ambient temperature. Plates were read from the top in kinetic mode (readings taken every 1 min), monitoring fluorescence intensity with filters using Ex 360 nm and Em 485 nm and a band width of 40 and 20 nm, respectively, and a gain of 80. Data analysis was performed using either Graphpad Prism or Gene Data Screener software.

288 kinases = assay: Large panel kinase profiling, overall selectivity; assay type: biochemical; details: 1 μM test article, 1 mM ATP
Protocol: as §1

[2] = plasma, read-out: Mean [plasma]

T1 sequence (Q06187 whole entry): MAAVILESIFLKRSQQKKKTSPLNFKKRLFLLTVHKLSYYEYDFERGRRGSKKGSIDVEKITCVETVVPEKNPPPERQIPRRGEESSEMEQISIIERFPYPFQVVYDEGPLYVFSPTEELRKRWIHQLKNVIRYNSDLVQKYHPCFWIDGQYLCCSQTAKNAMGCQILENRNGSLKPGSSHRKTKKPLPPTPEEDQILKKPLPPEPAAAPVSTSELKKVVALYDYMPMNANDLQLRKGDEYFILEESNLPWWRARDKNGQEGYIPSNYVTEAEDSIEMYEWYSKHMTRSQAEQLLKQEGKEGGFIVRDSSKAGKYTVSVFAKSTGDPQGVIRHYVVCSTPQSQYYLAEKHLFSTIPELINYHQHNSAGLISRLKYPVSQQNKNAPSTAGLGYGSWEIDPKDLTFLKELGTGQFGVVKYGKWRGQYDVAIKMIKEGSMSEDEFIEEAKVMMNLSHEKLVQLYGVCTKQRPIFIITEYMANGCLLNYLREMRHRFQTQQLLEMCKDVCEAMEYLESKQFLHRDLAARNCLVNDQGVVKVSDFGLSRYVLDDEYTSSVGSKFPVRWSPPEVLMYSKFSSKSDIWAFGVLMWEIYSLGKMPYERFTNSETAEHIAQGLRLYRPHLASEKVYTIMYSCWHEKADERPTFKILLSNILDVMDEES

Row | SMILES | IC50 (BTK) [nM] | concentration at 1 h ([1]; brain, read-out: Mean [brain]) [ng/mL] | Kp at 1 h [1] | concentration at 1 h [1, 2] [ng/mL] | inhibition at 1 µM (MAP3K12) [%] | selectivity in the large panel kinase screen (288 kinases)
1 | C=CC(=O)N1CCCC(c2c(F)cc(C(N)=O)c3[nH]c4c(c23)CCCCC4)C1 (single isomer, unassigned) [Compound 5-6] | < 10 | 84 | 0.43 | 196 | 5 | highly selective
2 | C=CC(=O)N1CCC[C@@H](c2c(F)cc(C(N)=O)c3[nH]c4c(c23)CC2(CC4)CC2)C1 [Compound 6-2, (S)-5-(1-acryloylpiperidin-3-yl)-6-fluoro-1,2,4,9-tetrahydrospiro[carbazole-3,1′-cyclopropane]-8-carboxamide] | < 10 | 108 | 0.28 | 395 | -18.8 | highly selective
3 | C=CC(=O)N1CCC[C@@H](c2c(F)cc(C(N)=O)c3[nH]c4c(c23)CCC4)C1 [Compound 10-2, (S)-8-(1-acryloylpiperidin-3-yl)-7-fluoro-1,2,3,4-tetrahydrocyclo-penta[b]indole-5-carboxamide] | < 10 | 116 | 0.29 | 421 | -27.7 | highly selective
